These molecules were tested against CDK2/Cyclin E1 (Homo sapiens (Human), UniProt P24941) (assay: CDK2/Cyclin E1 HTRF enzyme activity assay (Example A)). Conditions: 1 mM ATP.
Type: biochemical
Method: Assays were conducted in white 384-well polystyrene plates in a final reaction volume of 8 μL. […] HTRF signals were read after 1 hour at room temperature on a PHERAstar FS plate reader (BMG Labtech). Data was analyzed with IDBS XLFit and GraphPad Prism 5.0 software using a three or four parameter dose response curve to determine IC50 for each compound.

IC50, ≤ 50 nM:
CS(=O)(=O)N1CCC(Nc2ncc(C(F)(F)F)c(-c3cn(-c4ccc(N5CC[C@@H](O)C5)cc4Cl)cn3)n2)CC1 [Example 138, (R)-1-(3-Chloro-4-(4-(2-((1-(methylsulfonyl)piperidin-4-yl)amino)-5-(trifluoromethyl)pyrimidin-4-yl)-1H-imidazol-1-yl)phenyl)pyrrolidin-3-ol]
CS(=O)(=O)N1CCC(Nc2ncc(C(F)(F)F)c(-c3cn(-c4cccc(C#N)c4C(F)(F)F)cn3)n2)CC1 [Example 38, 3-(4-(2-((1-(Methylsulfonyl)piperidin-4-yl)amino)-5-(trifluoromethyl)pyrimidin-4-yl)-1H-imidazol-1-yl)-2-(trifluoromethyl)benzonitrile]
CCN1CC(c2ccc(-n3cnc(-c4nc(NC5CCN(S(C)(=O)=O)CC5)ncc4C(F)(F)F)c3)c(C#N)c2)C1 [Example 429, 5-(1-Ethylazetidin-3-yl)-2-(4-(2-((1-(methylsulfonyl)piperidin-4-yl)amino)-5-(trifluoromethyl)pyrimidin-4-yl)-1H-imidazol-1-yl)benzonitrile]
CS(=O)(=O)N1CCC(Nc2ncc(C(F)(F)F)c(-c3cn(-c4ccc(CNC5CC5)cc4Cl)cn3)n2)CC1 [Example 190, 4-(1-(2-Chloro-4-((cyclopropylamino)-methyl)phenyl)-1H-imidazol-4-yl)-N-(1-(methylsulfonyl)-piperidin-4-yl)-5-(trifluoromethyl)-pyrimidin-2-amine]
CNCc1ccc(-n2cnc(-c3nc(NC4CCN(S(C)(=O)=O)CC4)ncc3C(F)(F)F)c2)c(C)c1 [Example 272, 4-(1-(2-Methyl-4-((methylamino)methyl)phenyl)-1H-imidazol-4-yl)-N-(1-(methylsulfonyl)piperidin-4-yl)-5-(trifluoromethyl)pyrimidin-2-amine]
CN1CCN(c2ccc(-n3cnc(-c4nc(NC5CCN(S(C)(=O)=O)CC5)ncc4C(F)(F)F)c3)c(Cl)c2)C1=O [Example 147, 1-(3-Chloro-4-(4-(2-((1-(methyl-sulfonyl)piperidin-4-yl)amino)-5-(trifluoromethyl)-pyrimidin-4-yl)-1H-imidazol-1-yl)-phenyl)-3-methyl-imidazolidin-2-one]
Cc1cccc(-n2cnc(-c3nc(NC4CCN(S(C)(=O)=O)CC4)ncc3C(F)(F)F)c2)c1C#N [Example 61, 2-Methyl-6-(4-(2-((1-(methylsulfonyl)piperidin-4-yl)amino)-5-(trifluoromethyl)pyrimidin-4-yl)-1H-imidazol-1-yl)benzonitrile]
Cc1nc(-c2nc(NC3CCN(S(C)(=O)=O)CC3)ncc2C(F)(F)F)cn1-c1ccc(N[C@@H]2CCCN(C)C2)cc1F [Example 117]
CS(=O)(=O)N1CCC(Nc2ncc(C(F)(F)F)c(-c3cn(-c4ccc(CN5CC6CCC5CC6)cc4Cl)cn3)n2)CC1 [Example 179, 4-(1-(4-((2-Azabicyclo[2.2.2]octan-2-yl)methyl)-2-chlorophenyl)-1H-imidazol-4-yl)-N-(1-(methylsulfonyl)piperidin-4-yl)-5-(trifluoromethyl)pyrimidin-2-amine]
CC(C)NCc1cc(F)c(-n2cnc(-c3nc(N[C@@H]4CCN(S(C)(=O)=O)C[C@H]4F)ncc3C(F)(F)F)c2)c(F)c1 [Example 391, 4-(1-(2,6-Difluoro-4-((isopropylamino)methyl)phenyl)-1H-imidazol-4-yl)-N-((3R,4R)-3-fluoro-1-(methylsulfonyl)piperidin-4-yl)-5-(trifluoromethyl)pyrimidin-2-amine]
CS(=O)(=O)N1CCC(Nc2ncc(C(F)(F)F)c(-c3cn(-c4ccc(C#N)nc4C(F)F)cn3)n2)CC1 [Example 100, 6-(Difluoromethyl)-5-(4-(2-((1-(methyl-sulfonyl)piperidin-4-yl)amino)-5-(trifluoro-methyl)pyrimidin-4-yl)-1H-imidazol-1-yl)picolinonitrile]
CS(=O)(=O)N1CCC(Nc2ncc(C(F)(F)F)c(-c3cn(-c4cccc(CNC5CC5)c4Cl)cn3)n2)CC1 [Example 81, 4-(1-(2-Chloro-3-((cyclopropylamino)methyl)phenyl)-1H-imidazol-4-yl)-N-(1-(methylsulfonyl)piperidin-4-yl)-5-(trifluoromethyl)pyrimidin-2-amine]
Cc1nc(-c2nc(NC3CCN(S(C)(=O)=O)CC3)ncc2C(F)(F)F)cn1-c1ccc(N2CC3(CCN(C)CC3)C2)cc1F [Example 104, 4-(1-(2-Fluoro-4-(7-methyl-2,7-diazaspiro[3.5]-nonan-2-yl)phenyl)-2-methyl-1H-imidazol-4-yl)-N-(1-(methylsulfonyl)-piperidin-4-yl)-5-(trifluoromethyl)-pyrimidin-2-amine]
CC(C)(O)Cn1cnc(-c2nc(N[C@H]3CCN(S(C)(=O)=O)C[C@H]3F)ncc2C(F)(F)F)c1 [Example 325, 1-(4-(2-(((3R,4S)-3-Fluoro-1-(methylsulfonyl)piperidin-4-yl)amino)-5-(trifluoromethyl)pyrimidin-4-yl)-1H-imidazol-1-yl)-2-methylpropan-2-ol]
CC(C)(O)Cn1cnc(-c2nc(NC3CCN(S(C)(=O)=O)CC3)ncc2C#N)c1 [Example 27, 4-(1-(2-Hydroxy-2-methylpropyl)-1H-imidazol-4-yl)-2-((1-(methylsulfonyl)piperidin-4-yl)amino)pyrimidine-5-carbonitrile]
CS(=O)(=O)N1CCC(Nc2ncc(C(F)(F)F)c(-c3cn(-c4cccc(CN5CCC5)c4C(F)(F)F)cn3)n2)CC1 [Example 380, 4-(1-(3-(Azetidin-1-ylmethyl)-2-(trifluoromethyl)phenyl)-1H-imidazol-4-yl)-N-(1-(methylsulfonyl)piperidin-4-yl)-5-(trifluoromethyl)pyrimi-din-2-amine]
CN(C)Cc1cccc(-n2cnc(-c3nc(NC4CCN(S(C)(=O)=O)CC4)ncc3C(F)(F)F)c2)c1Cl [Example 77, 4-(1-(2-Chloro-3-((dimethylamino)methyl)phenyl)-1H-imidazol-4-yl)-N-(1-(methylsulfonyl)piperidin-4-yl)-5-(trifluoromethyl)pyrimidin-2-amine]
CS(=O)(=O)N1CCC(Nc2ncc(C(F)(F)F)c(-c3cn(-c4ccc(Cn5nccn5)cc4Cl)cn3)n2)CC1 [Example 241, 4-(1-(4-((2H-1,2,3-Triazol-2-yl)methyl)-2-chlorophenyl)-1H-imidazol-4-yl)-N-(1-(methylsulfonyl)piperidin-4-yl)-5-(trifluoromethyl)pyrimidin-2-amine]
CN1CCN(c2ccc(-n3cnc(-c4nc(NC5CCN(S(C)(=O)=O)CC5)ncc4C(F)(F)F)c3)c(Cl)c2)CC1 [Example 148, 4-(1-(2-Chloro-4-(4-methylpiperazin-1-yl)phenyl)-1H-imidazol-4-yl)-N-(1-(methylsulfonyl)-piperidin-4-yl)-5-(trifluoromethyl)-pyrimidin-2-amine]
CCS(=O)(=O)N1CCC(Nc2ncc(C(F)(F)F)c(-c3cn(CC(C)(C)O)cn3)n2)CC1 [Example 324, 1-(4-(2-((1-(Ethylsulfonyl)piperidin-4-yl)amino)-5-(trifluoromethyl)pyrimidin-4-yl)-1H-imidazol-1-yl)-2-methylpropan-2-ol]
COc1ccc(-n2cnc(-c3nc(NC4CCN(S(C)(=O)=O)CC4)ncc3C(F)(F)F)c2)c(Cl)c1 [Example 151, 4-(1-(2-Chloro-4-methoxyphenyl)-1H-imidazol-4-yl)-N-(1-(methylsulfonyl)piperidin-4-yl)-5-(trifluoromethyl)pyrimidin-2-amine]
CN(C)Cc1ccc(-n2cnc(-c3nc(NC4CCN(S(C)(=O)=O)CC4)ncc3C(F)(F)F)c2)c(Cl)c1F [Example 253, 4-(1-(2-Chloro-4-((dimethylamino)methyl)-3-fluorophenyl)-1H-imidazol-4-yl)-N-(1-(methylsulfonyl)piperidin-4-yl)-5-(trifluoromethyl)pyrimidin-2-amine]
CS(=O)(=O)N1CCC(Nc2ncc(C(F)(F)F)c(-c3cn(-c4ccc(CN5CCOCC5)cc4Cl)cn3)n2)CC1 [Example 210, 4-(1-(2-Chloro-4-(morpholinomethyl)-phenyl)-1H-imidazol-4-yl)-N-(1-(methyl-sulfonyl)piperidin-4-yl)-5-(trifluoro-methyl)pyrimidin-2-amine]
Cc1nc(-c2nc(N[C@H]3CCN(S(C)(=O)=O)C[C@H]3F)ncc2C(F)(F)F)cn1-c1ccc(CN2CCC(C)(O)CC2)cc1F [Example 446, 1-(3-Fluoro-4-(4-(2-(((3R,4S)-3-fluoro-1-(methylsulfonyl)piperidin-4-yl)amino)-5-(trifluoromethyl)pyrimidin-4-yl)-2-methyl-1H-imidazol-1-yl)benzyl)-4-methylpiperidin-4-ol]
CCOc1ccc(-n2cnc(-c3nc(NC4CCN(S(C)(=O)=O)CC4)ncc3C(F)(F)F)c2)c(C#N)c1 [Example 436, 5-Ethoxy-2-(4-(2-((1-(methylsulfonyl)piperidin-4-yl)amino)-5-(trifluoromethyl)pyrimidin-4-yl)-1H-imidazol-1-yl)benzonitrile]
Cc1nc(-c2nc(NC3CCN(S(C)(=O)=O)CC3)ncc2C(F)(F)F)cn1-c1ccc(N2CCC(N(C)C)CC2)cc1F [Example 101, 4-(1-(4-(4-(Dimethylamino)piperidin-1-yl)-2-fluorophenyl)-2-methyl-1H-imidazol-4-yl)-N-(1-(methylsulfonyl)piperidin-4-yl)-5-(trifluoromethyl)pyrimidin-2-amine]
COc1nccc(-n2cc(-c3nc(NC4CCN(S(C)(=O)=O)CC4)ncc3C(F)(F)F)nc2C)c1F [Example 314, 4-(1-(3-Fluoro-2-methoxypyridin-4-yl)-2-methyl-1H-imidazol-4-yl)-N-(1-(methylsulfonyl)piperidin-4-yl)-5-(trifluoromethyl)pyrimidin-2-amine]

From patent US11427567B2, “Imidazolyl pyrimidinylamine compounds as CDK2 inhibitors” (Incyte Corporation, priority 2019, dated 2022)
